The record followed here is patent US12391641B2, “Prostaglandin EP4 receptor antagonist compounds” (NXERA PHARMA UK LIMITED, priority 2019, dated 2025).

In this assay the target is T1, Human prostaglandin E2 receptor 4 (EP4) (Homo sapiens, UniProt P35408).
T1 construct: expressed in transfected cells; host or cells: HEK293 cells transduced with EP4 BacMam virus
Description: cAMP Gs Functional Assay (HTRF cAMP dynamic-2), antagonism of PGE2. Type of assay: cell-based. To be noted: HEK293 cells transfected with EP4 BacMam virus; PGE2 challenge at EC80 (7 nM); pIC50 converted to functional pKb with a modified Cheng Prussoff equation; read-out: Human EP4 fpKb (converted). The essentials: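 HEK293 cells transiently expressing human EP4 via BacMam (36 h), preincubated with compound 30 min at 37 °C in DMEM + 0.5 mM IBMX, 5000 cells/well, then challenged with EC80 PGE2 (7 nM). cAMP read by HTRF; pIC50 converted to pKb by modified Cheng-Prusoff using agonist EC50 and challenge concentration.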

T1 sequence (P35408 whole entry): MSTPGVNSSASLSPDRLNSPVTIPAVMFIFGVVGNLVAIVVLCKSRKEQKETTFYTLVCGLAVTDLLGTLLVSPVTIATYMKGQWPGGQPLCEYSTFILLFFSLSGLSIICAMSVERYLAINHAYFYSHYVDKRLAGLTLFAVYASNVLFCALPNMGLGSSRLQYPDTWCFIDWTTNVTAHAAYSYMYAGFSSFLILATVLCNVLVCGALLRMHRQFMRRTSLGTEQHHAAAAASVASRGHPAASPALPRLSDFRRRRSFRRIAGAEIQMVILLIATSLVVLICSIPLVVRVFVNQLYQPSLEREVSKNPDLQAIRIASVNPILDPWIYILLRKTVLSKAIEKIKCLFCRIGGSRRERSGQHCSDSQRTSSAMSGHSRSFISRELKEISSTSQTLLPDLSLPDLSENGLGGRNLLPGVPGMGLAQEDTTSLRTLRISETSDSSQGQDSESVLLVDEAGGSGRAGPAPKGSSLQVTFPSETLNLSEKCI

Turning to `CC(C)[C@@H](OCc1ccc(C(F)(F)F)cn1)C(=O)N[C@@H](C)c1ccc(C(=O)O)cc1` [Example 25, 4-((S)-1-((R)-3-methyl-2-((5-(trifluoromethyl)pyridin-2-yl)methoxy)butanamido)ethyl)benzoic acid], the Ki was 13.8 nM.
With `CC(C)C(OCc1cccc(C2COC2)c1)C(=O)NC1(c2ccc(C(=O)O)cc2)CC1` (single isomer, unassigned) [Example 87, 4-(1-(3-methyl-2-((3-(oxetan-3-yl)benzyl)oxy)butanamido)cyclopropyl)benzoic acid], the Ki is over 603 nM.
With `COc1cccc(COC(C(=O)N[C@@H](C)c2ccc(C(=O)O)cc2)C(C)C)c1` (mixture of isomers) [Example 3, 4-((1S)-1-(2-((3-methoxybenzyl)oxy)-3-methylbutanamido)ethyl)benzoic acid], the Ki is over 67.6 nM.
In the case of `CC(C)[C@@H](OCc1cccc(O)c1)C(=O)N[C@@H](C)c1ccc(C(=O)O)cc1` [Example 38, 4-((S)-1-((R)-2-((3-hydroxybenzyl)oxy)-3-methylbutanamido)ethyl)benzoic acid], the Ki was over 4680 nM.
`CC(C)[C@@H](OCc1ccc(C(F)F)c(F)c1)C(=O)NC1(c2ccc(C(=O)O)cc2)CC1` [Example 61, (R)-4-(1-(2-((4-(difluoromethyl)-3-fluorobenzyl)oxy)-3-methylbutanamido)cyclopropyl)benzoic acid]: the Ki was 0.339 nM.
Consider `CC(C)[C@@H](OCc1ccc(Cl)c(F)c1)C(=O)NC1(c2ccc(C(=O)O)cc2)CC1` [Example 79], for which the Ki is 2.45 nM.
As for `CC(C)[C@@H](OCc1ccc(F)c(F)c1)C(=O)NC1(c2ccc(-c3nnn[nH]3)cc2)CC1` [Example 71, (R)—N-(1-(4-(1H-tetrazol-5-yl)phenyl)cyclopropyl)-2-((3,4-difluorobenzyl)oxy)-3-methylbutanamide], the Ki was 0.372 nM.
For the compound `CC(C)[C@@H](OCc1ccnc(OC(F)F)c1)C(=O)N[C@@H](C)c1ccc(C(=O)O)cc1` [Example 74, 4-((S)-1-((R)-2-((2-(difluoromethoxy)pyridin-4-yl)methoxy)-3-methylbutanamido)ethyl)benzoic acid], the Ki is 0.447 nM.
As for `CC(C)[C@@H](OCc1ccc(C(F)(F)F)cc1)C(=O)N[C@@H](C)c1ccc(C(=O)O)cc1` [Example 1, 4-((S)-1-((R)-3-methyl-2-((4-(trifluoromethyl)benzyl)oxy)butanamido)ethyl)benzoic acid], the Ki is 0.776 nM.
`CC(C)[C@@H](OCc1ccc(C(F)(F)F)cc1)C(=O)N[C@@H](C)c1ccc(C(=O)NS(C)(=O)=O)cc1` [Example 53, 4-((S)-1-((R)-3-methyl-2-((4-(trifluoromethyl)benzyl)oxy)butanamido)ethyl)-N-(methylsulfonyl)benzamide]: the Ki was 64.6 nM.
For the compound `CS(=O)(=O)c1cccc(COC(C(=O)NC2(c3ccc(C(=O)O)cc3)CC2)C2CCC2)c1` (stereo not shown) [Example 95, 4-(1-(2-cyclobutyl-2-((3-(methylsulfonyl)benzyl)oxy)acetamido)cyclopropyl)benzoic acid], the Ki is 79.4 nM.
The figure for `CCS(=O)(=O)c1cccc(CO[C@@H](C(=O)NC2(c3ccc(C(=O)O)cc3)CC2)C(C)C)c1` [Example 56, (R)-4-(1-(2-((3-(ethylsulfonyl)benzyl)oxy)-3-methylbutanamido)cyclopropyl)benzoic acid] is 7.24 nM; for `CC(C)[C@@H](OCc1ccc(S(F)(F)(F)(F)F)cc1)C(=O)N[C@@H](C)c1ccc(C(=O)O)cc1` [Example 26, 4-((S)-1-((R)-3-methyl-2-((4-(pentafluoro-λ^6-sulfaneyl)benzyl)oxy)butanamido)ethyl)benzoic acid] it is 27.5 nM; for `CC(C)[C@@H](OCc1cccc(CO)c1)C(=O)N[C@@H](C)c1ccc(C(=O)O)cc1` [Example 45, 4-((S)-1-((R)-2-((3-(hydroxymethyl)benzyl)oxy)-3-methylbutanamido)ethyl)benzoic acid] it is 10 nM.
On to `CC(C)[C@@H](OCc1ccc(C(F)(F)F)nc1)C(=O)NC1(c2ccc(C(=O)O)cc2)CC1` [Example 76, (R)-4-(1-(3-methyl-2-((6-(trifluoromethyl)pyridin-3-yl)methoxy)butanamido)cyclopropyl)benzoic acid], for which the Ki was 33.1 nM.
The figure for `CC(C)[C@@H](OCc1ccc(F)cc1)C(=O)N[C@@H](C)c1ccc(C(=O)NS(=O)(=O)C2CC2)cc1` [Example 81, N-(cyclopropylsulfonyl)-4-((S)-1-((R)-2-((4-fluorobenzyl)oxy)-3-methylbutanamido)ethyl)benzamide] is 302 nM.
Consider `CC(C)[C@@H](OCc1ccc(F)c(S(C)(=O)=O)c1)C(=O)N[C@@H](C)c1ccc(C(=O)O)cc1` [Example 35, 4-((S)-1-((R)-2-((4-fluoro-3-(methylsulfonyl)benzyl)oxy)-3-methylbutanamido)ethyl)benzoic acid], for which the Ki is 7.41 nM.
For `CC(C)[C@@H](OCc1ccc(C(F)F)c(F)c1)C(=O)N[C@@H](C)c1ccc(C(=O)O)cc1` [Example 29, 4-((S)-1-((R)-2-((4-(difluoromethyl)-3-fluorobenzyl)oxy)-3-methylbutanamido)ethyl)benzoic acid], the Ki is 0.603 nM.
Take `CC(C)[C@@H](OCc1ccc(F)cc1)C(=O)NC1(c2ccc(C(=O)O)cc2)CC1` [Example 31, (R)-4-(1-(2-((4-fluorobenzyl)oxy)-3-methylbutanamido)cyclopropyl)benzoic acid]: the Ki is 2.24 nM.
As to `CC(C)[C@@H](OCc1cccc(C(F)F)c1)C(=O)N[C@@H](C)c1ccc(C(=O)O)cc1` [Example 14, 4-((S)-1-((R)-2-((3-(difluoromethyl)benzyl)oxy)-3-methylbutanamido)ethyl)benzoic acid], the Ki was 1.82 nM.
For `CC(C)[C@H](OCc1ccc(F)cc1)C(=O)N[C@@H](C)c1ccc(C(=O)O)cc1` [Example 4, 4-((S)-1-((S)-2-((4-fluorobenzyl)oxy)-3-methylbutanamido)ethyl)benzoic acid], the Ki is over 195 nM.
For `CC(C)[C@@H](OCc1ccn2ccnc2c1)C(=O)N[C@@H](C)c1ccc(C(=O)O)cc1` [Example 66, 4-((S)-1-((R)-2-(imidazo[1,2-a]pyridin-7-ylmethoxy)-3-methylbutanamido)ethyl)benzoic acid], the Ki was 34.7 nM.
Turning to `C[C@H](NC(=O)C(OCc1ccc(C(F)(F)F)cc1)C1CCC1)c1ccc(C(=O)O)cc1` (single isomer, unassigned) [Example 94], the Ki is 5.01 nM.
`CC(C)[C@@H](OCc1ccc2c(c1)OC(F)(F)O2)C(=O)NC1(c2ccc(C(=O)O)cc2)CC1` [Example 55, (R)-4-(1-(2-((2,2-difluorobenzo[d][1,3]dioxol-5-yl)methoxy)-3-methylbutanamido)cyclopropyl)benzoic acid]: the Ki is 0.479 nM.
As for `CC(C)[C@@H](OCc1ccc(F)c(F)c1)C(=O)NC1(c2ccc(C(=O)O)cc2)CC1` [Example 37, (R)-4-(1-(2-((3,4-difluorobenzyl)oxy)-3-methylbutanamido)cyclopropyl)benzoic acid], the Ki is 1.23 nM.
Take `CC(C)[C@@H](OCc1ccnc(OC(F)F)c1)C(=O)NC1(c2ccc(C(=O)O)cc2)CC1` [Example 67, (R)-4-(1-(2-((2-(difluoromethoxy)pyridin-4-yl)methoxy)-3-methylbutanamido)cyclopropyl)benzoic acid]: the Ki was 0.575 nM.
With `CC(C)[C@@H](OCc1ccc(F)cc1)C(=O)NC1(c2ccc(-c3nnn[nH]3)cc2)CC1` [Example 70, (R)—N-(1-(4-(1H-tetrazol-5-yl)phenyl)cyclopropyl)-2-((4-fluorobenzyl)oxy)-3-methylbutanamide], the Ki is 6.92 nM.
The figure for `CC(C)[C@@H](OCc1ccc(OC(F)F)cc1)C(=O)N[C@@H](C)c1ccc(C(=O)O)cc1` [Example 23, 4-((S)-1-((R)-2-((4-(difluoromethoxy)benzyl)oxy)-3-methylbutanamido)ethyl)benzoic acid] is 14.5 nM; for `CC(C)[C@@H](OCc1cccc(C#N)c1)C(=O)NC1(c2ccc(C(=O)O)cc2)CC1` [Example 54, (R)-4-(1-(2-((3-cyanobenzyl)oxy)-3-methylbutanamido)cyclopropyl)benzoic acid] it is over 12900 nM; for `CC(C)C(OCc1cccc(F)c1)C(=O)N[C@@H](C)c1ccc(C(=O)O)cc1` (single isomer, unassigned) [Example 17] it is 3.02 nM.
With `CC(C)[C@@H](OCc1ccc2c(c1)OC(F)(F)O2)C(=O)N[C@@H](C)c1ccc(C(=O)O)cc1` [Example 28, 4-((S)-1-((R)-2-((2,2-difluorobenzo[d][1,3]dioxol-5-yl)methoxy)-3-methylbutanamido)ethyl)benzoic acid], the Ki is 0.151 nM.
